Literature values in patent publication US20070027107A1, “Compositions and methods for treating estrogen-dependent diseases and conditions” (priority 2005, published 2007).

Settings: free carboxylic acids (without counterion) of alginate residues

| pKa | Compound |
| --- | --- |
| 3.65 | O=C[C@@H](O)[C@@H](O)[C@H](O)[C@@H](O)C(=O)O [G, L-guluronic acid] |
| 3.38 | O=C[C@@H](O)[C@@H](O)[C@H](O)[C@H](O)C(=O)O [M, D-mannuronic acid] |
